Broadly, the EC50 is the concentration giving half of the maximal effect. Read a high EC50 as a need for much substance.

The assay addresses estrogen receptor alpha (ESR1) (Homo sapiens, UniProt P03372). Briefly: cell-based. As to conditions: for ER-alpha MCF7 HCS Sinf: MCF7 breast cancer cells, 4 hours, plateau of the maximal effect, DMSO and Fulvestrant define 0% and 100% changes in ESR1. As for the experimental part:
Where more than one name is associated with a Formula I compound or intermediate, the chemical structure shall define the compound.
Cell plates were incubated at 37° C., for 4 hours. Fixation and permeabilization were carried out using a Biotek EL406 plate washer and dispenser as follows. […] Samples were incubated 30 minutes. Well contents was aspirated and 50 ul/well of Phosphate Buffered Saline (PBS) containing 0.5% w/v bovine serum albumen, 0.5% v/v Triton X-100 (Antibody Dilution Buffer) was added to each well. Samples were incubated for 30 minutes. Well contents were aspirated and washed 3 times with 100 ul/well of PBS. Immunofluorescence staining of estrogen receptor alpha (ESR1) was carried out using a Biotek EL406 plate washer and dispenser as follows. […] Samples were incubated for 2 hours at room temperature. Samples were washed 4 times with 100 ul/well of PBS. […] Samples were incubated for 2 hours at room temperature. Samples were washed 3 times with 100 ul/well of PBS using a Biotek EL406. Quantitative fluorescence imaging of ESR1 was carried out using a Cellomics Arrayscan V (Thermo). […] Channel 1 (DNA stain) was used to define the nuclear region (Circ). […] Data analysis was carried out using Genedata Screener Software, with DMSO and 5 nM Fulvestrant treated samples being used to define the 0% and 100% changes in ESR1. The “Robust Fit” method was used to define the inflexion point of curve (EC50) and the plateau of the maximal effect (Sin f).

estrogen receptor alpha (ESR1), sequence (P03372 whole entry): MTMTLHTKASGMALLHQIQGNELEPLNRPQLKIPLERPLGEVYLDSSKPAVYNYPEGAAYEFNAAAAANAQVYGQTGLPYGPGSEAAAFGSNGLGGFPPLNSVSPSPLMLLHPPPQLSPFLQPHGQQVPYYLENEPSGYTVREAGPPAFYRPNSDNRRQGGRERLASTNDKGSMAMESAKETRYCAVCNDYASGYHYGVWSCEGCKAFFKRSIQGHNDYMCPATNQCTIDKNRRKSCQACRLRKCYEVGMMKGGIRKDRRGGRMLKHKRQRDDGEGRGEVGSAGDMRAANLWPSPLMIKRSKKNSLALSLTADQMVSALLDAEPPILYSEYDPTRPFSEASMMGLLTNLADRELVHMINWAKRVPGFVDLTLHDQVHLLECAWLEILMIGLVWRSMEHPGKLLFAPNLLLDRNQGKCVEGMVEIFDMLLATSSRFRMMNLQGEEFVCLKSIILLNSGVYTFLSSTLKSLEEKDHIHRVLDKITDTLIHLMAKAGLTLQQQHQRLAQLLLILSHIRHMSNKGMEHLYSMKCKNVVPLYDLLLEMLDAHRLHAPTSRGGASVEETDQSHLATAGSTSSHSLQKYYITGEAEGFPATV

In the case of `CC/C(=C(\c1ccc(O)cc1)c1ccc(OCCN2CC[C@@H](CF)C2)cc1)c1ccccc1` [Example 22, (R,Z)-4-(1-(4-(2-(3-(Fluoromethyl)pyrrolidin-1-yl)ethoxy)phenyl)-2-phenylbut-1-en-yl)phenol], the EC50 is 0.58 nM and the “ER-alpha MCF7 HCS Sinf” value is −83%.
On the same counts, the results for `CC/C(=C(\c1ccc(O)cc1)c1ccc(OCCN2CC(CF)C2)cc1)c1ccccc1` [Example 23] are 0.59 nM and −95%.
Turning to `CC/C(=C(\c1ccc(O)cc1)c1ccc(OC[C@H](C)N2CC[C@@H](CF)C2)cc1)c1ccccc1` [Example 24, 4-((Z)-1-(4-((S)-2-((R)-3-(Fluoromethyl)pyrrolidin-1-yl)propoxy)phenyl)-2-phenylbut-1-en-1-yl)phenol], it took 0.18 nM to reach a half-maximal effect (EC50) and the “ER-alpha MCF7 HCS Sinf” value is given as −58%.
For the molecule `CC/C(=C(/c1ccc(OCCN2CC(CF)C2)cc1)c1ccc2[nH]ncc2c1)c1ccccc1` [Example 25, (E)-5-(1-(4-(2-(3-(Fluoromethyl)azetidin-1-yl)ethoxy)phenyl)-2-phenylbut-1-en-1-yl)-1H-indazole], a half-maximal effect (EC50) was put at 1.5 nM and the “ER-alpha MCF7 HCS Sinf” value is reported as −92%.
For `COc1ccc(/C(=C(\c2ccc(OCCN3CC[C@@H](CF)C3)cc2)c2ccc3[nH]nc(F)c3c2)C2CCC2)c(Cl)c1` [Example 26, (R,E)-5-(2-(2-Chloro-4-methoxyphenyl)-2-cyclobutyl-1-(4-(2-(3-(fluoromethyl)pyrrolidin-1-yl)ethoxy)phenyl)vinyl)-3-fluoro-1H-indazole], the EC50 was 0.6 nM and the “ER-alpha MCF7 HCS Sinf” value is −75%.
On the same counts, the results for `FC[C@@H]1CCN(CCOc2ccc(/C(=C(\c3ncc(C(F)(F)F)cc3Cl)C3CCC3)c3ccc4[nH]nc(F)c4c3)cc2)C1` [Example 27, (R,E)-5-(2-(3-Chloro-5-(trifluoromethyl)pyridin-2-yl)-2-cyclobutyl-1-(4-(2-(3-(fluoromethyl)pyrrolidin-1-yl)ethoxy)phenyl)vinyl)-3-fluoro-1H-indazole] are 0.85 nM and −73%.
Taken in the same sequence, the figures for `O=C(C1=C(c2ccc(O)cc2)CCc2cc(O)ccc21)c1ccc(OCCN2CC(CF)C2)cc1` [Example 32, (4-(2-(3-(Fluoromethyl)azetidin-1-yl)ethoxy)phenyl)(6-hydroxy-2-(4-hydroxyphenyl)-3,4-dihydronaphthalen-1-yl)methanone] were 0.19 nM and −101%.
Taken in the same sequence, the figures for `O=C(c1ccc(OCCN2CC(CF)C2)cc1)c1c(-c2ccc(F)c(F)c2)sc2cc(O)ccc12` [Example 35, (2-(3,4-difluorophenyl)-6-hydroxybenzo[b]thiophen-3-yl)(4-(2-(3-(fluoromethyl)azetidin-1-yl)ethoxy)phenyl)methanone] were 0.55 nM and −98%.
Regarding `Cc1cc(-c2sc3cc(O)ccc3c2C(=O)c2ccc(OCCN3CC(CF)C3)cc2)ccc1F` [Example 36, (2-(4-fluoro-3-methylphenyl)-6-hydroxybenzo[b]thiophen-3-yl)(4-(2-(3-(fluoromethyl)azetidin-1-yl)ethoxy)phenyl)methanone], a half-maximal effect (EC50) was put at 2.5 nM and the “ER-alpha MCF7 HCS Sinf” value was −97%.
Regarding `O=C(c1ccc(OCCN2CC(CF)C2)cc1)c1c(-c2ccc(F)c(Cl)c2)sc2cc(O)ccc12` [Example 37, (2-(3-chloro-4-fluorophenyl)-6-hydroxybenzo[b]thiophen-3-yl)(4-(2-(3-(fluoromethyl)azetidin-1-yl)ethoxy)phenyl)methanone], the EC50 came out at 4.4 nM and the “ER-alpha MCF7 HCS Sinf” value is −97%.
On the same counts, the results for `Cc1cc(F)ccc1-c1sc2cc(O)ccc2c1C(=O)c1ccc(OCCN2CC(CF)C2)cc1` [Example 38, (2-(4-fluoro-2-methylphenyl)-6-hydroxybenzo[b]thiophen-3-yl)(4-(2-(3-(fluoromethyl)azetidin-1-yl)ethoxy)phenyl)methanone] are 0.88 nM and −96%.
On the same counts, the results for `O=C(c1ccc(OCCN2CC(CF)C2)cc1)c1c(-c2ccccc2)sc2cc(O)ccc12` [Example 39, (4-(2-(3-(fluoromethyl)azetidin-1-yl)ethoxy)phenyl)(6-hydroxy-2-phenylbenzo[b]thiophen-3-yl)methanone] are 1.6 nM and −96%.
Consider `Cc1cc(-c2c(C)c3cc(O)ccc3n2Cc2ccc(OCCN3CC(CF)C3)cc2)ccc1O` [Example 41, 1-[[4-[2-[3-(fluoromethyl)azetidin-1-yl]ethoxy]phenyl]methyl]-2-(4-hydroxy-3-methyl-phenyl)-3-methyl-indol-5-ol], for which the midpoint of the response, the EC50, lay at 0.0518 nM and the “ER-alpha MCF7 HCS Sinf” value is reported as −97.8%.
On to `Cc1cc(-c2c(C)c3cc(O)ccc3n2Cc2ccc(OCCN3CC[C@@H](CF)C3)cc2)ccc1O` [Example 42, (R)-1-(4-(2-(3-(fluoromethyl)pyrrolidin-1-yl)ethoxy)benzyl)-2-(4-hydroxy-3-methylphenyl)-3-methyl-1H-indol-5-ol], for which the EC50 came to 0.025 nM and the “ER-alpha MCF7 HCS Sinf” value was −97.5%.
Taken in the same sequence, the figures for `Cc1cc(-c2c(C)c3cc(O)ccc3n2Cc2ccc(OC[C@H](C)N3CC[C@@H](CF)C3)cc2)ccc1O` [Example 43, 1-[[4-[(2S)-2-[(3R)-3-(fluoromethyl)pyrrolidin-1-yl]propoxy]phenyl]methyl]-2-(4-hydroxy-3-methyl-phenyl)-3-methyl-indol-5-ol] were 0.0179 nM and −96.0%.
Taken in the same sequence, the figures for `Cc1c(-c2ccc(O)c(F)c2)n(Cc2ccc(OCCN3CC[C@@H](CF)C3)cc2)c2ccc(O)cc12` [Example 44, 2-(3-fluoro-4-hydroxy-phenyl)-1-[[4-[2-[(3R)-3-(fluoromethyl)pyrrolidin-1-yl]ethoxy]phenyl]methyl]-3-methyl-indol-5-ol] were 0.0278 nM and −98.1%.
On the same counts, the results for `Cc1c(-c2ccc(O)c(F)c2)n(Cc2ccc(OC[C@H](C)N3CC[C@@H](CF)C3)cc2)c2ccc(O)cc12` [Example 45, 2-(3-fluoro-4-hydroxy-phenyl)-1-[[4-[(2S)-2-[(3R)-3-(fluoromethyl)pyrrolidin-1-yl]propoxy]phenyl]methyl]-3-methyl-indol-5-ol] are 0.00632 nM and −97.5%.
For `Cc1c(-c2ccc(O)c(Cl)c2)n(Cc2ccc(OCCN3CC(CF)C3)cc2)c2ccc(O)cc12` [Example 46, 2-(3-chloro-4-hydroxy-phenyl)-1-[[4-[2-[3-(fluoromethyl)azetidin-1-yl]ethoxy]phenyl]methyl]-3-methyl-indol-5-ol], the EC50 was found to be 0.03 nM and the “ER-alpha MCF7 HCS Sinf” value is −97.8%.
On the same counts, the results for `Cc1c(-c2ccc(O)cc2Cl)n(Cc2ccc(OCCN3CC(CF)C3)cc2)c2ccc(O)cc12` [Example 47, 2-(2-chloro-4-hydroxy-phenyl)-1-[[4-[2-[3-(fluoromethyl)azetidin-1-yl]ethoxy]phenyl]methyl]-3-methyl-indol-5-ol] are 0.115 nM and −94.1%.
Taken in the same sequence, the figures for `Cc1c(-c2ccc(O)cc2)n(Cc2ccc(OCCN3CC(CF)C3)cc2)c2ccc(O)c(F)c12` [Example 48, 4-fluoro-1-[[4-[2-[3-(fluoromethyl)azetidin-1-yl]ethoxy]phenyl]methyl]-2-(4-hydroxyphenyl)-3-methyl-indol-5-ol] were 0.662 nM and −92.8%.
Taken in the same sequence, the figures for `Cc1c(-c2ccc(O)cc2)n(Cc2ccc(OCCN3CC(CF)C3)cc2)c2cc(F)c(O)cc12` [Example 49, 6-fluoro-1-(4-(2-(3-(fluoromethyl)azetidin-1-yl)ethoxy)benzyl)-2-(4-hydroxyphenyl)-3-methyl-1H-indol-5-ol] were 0.187 nM and −95.6%.
As for `Cc1c(-c2ccc(O)cc2Cl)n(Cc2ccc(OCCN3CC[C@@H](CF)C3)cc2)c2ccc(O)cc12` [Example 55, 2-(2-chloro-4-hydroxyphenyl)-1-(4-(2-((R)-3-(fluoromethyl)pyrrolidin-1-yl)ethoxy)benzyl)-3-methyl-1H-indol-5-ol], the EC50 was found to be 0.0199 nM and the “ER-alpha MCF7 HCS Sinf” value was −98.7%.
For `Cc1c(-c2ccc(O)cc2Cl)n(Cc2ccc(OC[C@H](C)N3CC[C@@H](CF)C3)cc2)c2ccc(O)cc12` [Example 56, 2-(2-chloro-4-hydroxyphenyl)-1-(4-((S)-2-((R)-3-(fluoromethyl)pyrrolidin-1-yl)propoxy)benzyl)-3-methyl-1H-indol-5-ol], the response was half-maximal at 0.0285 nM (EC50) and the “ER-alpha MCF7 HCS Sinf” value is −95.6%.
Take `Cc1cc(O)ccc1-c1c(C)c2cc(O)ccc2n1Cc1ccc(OCCN2CC(CF)C2)cc1` [Example 57, 1-[[4-[2-[3-(fluoromethyl)azetidin-1-yl]ethoxy]phenyl]methyl]-2-(4-hydroxy-2-methyl-phenyl)-3-methyl-indol-5-ol]: a half-maximal effect (EC50) was put at 0.0469 nM and the “ER-alpha MCF7 HCS Sinf” value is on record as −93.4%.
On the same counts, the results for `Oc1cccc([C@H]2Sc3c(ccc(O)c3F)O[C@H]2c2ccc(OCCN3CC(CF)C3)cc2)c1` [Example 58, (2S,3R)-5-fluoro-2-(4-(2-(3-(fluoromethyl)azetidin-1-yl)ethoxy)phenyl)-3-(3-hydroxyphenyl)-2,3-dihydrobenzo[b][1,4]oxathiin-6-ol] are 0.026 nM and −99.8%.

For the origin of these results see patent US9845291B2, “Estrogen receptor modulators and uses thereof” (Genentech, Inc., priority 2014, dated 2017).
